The results in this text go back to ChEMBL document CHEMBL4706689, “Synthesis and antifungal activity of polycyclic pyridone derivatives with anti-hyphal and biofilm formation activity against Candida albicans” (2021).

For test [1], the system named is Candida albicans. As to the kind of experiment: Inhibition of hyphal formation in Candida albicans SC5314 cultured in spider medium assessed as reduction in hyphal length at 25 ug/ml relative to control. It counts as functional.
Test [2] concerns Candida albicans. In words: Inhibition of biofilm formation in Candida albicans SC5314 by XTT assay. It counts as functional, organism-based.
For test [3], the system named is Candida albicans. In words: Inhibition of hyphal formation in Candida albicans SC5314 cultured in spider medium assessed as reduction in hyphal length. It counts as functional, organism-based. Conditions: dose 3.12-25 µg/ml.
Test [4] relates to Candida albicans. In words: Inhibition of biofilm formation in Candida albicans SC5314 at 25 ug/ml by XTT assay relative to control. Format: functional.
The subject of test [5] is Candida albicans. As to the kind of experiment: Inhibition of biofilm formation in Candida albicans SC5314 at 6.25 to 25 ug/ml by XTT assay. It counts as functional, organism-based. Conditions: dose 6.25-25 µg/ml. (In general: Tetrazolium assays rely on reduction of a dye to a coloured formazan, in cell work by metabolically active cells.)

SMILES strings stand for the structures. Calls of active or inactive are those of the source. No cut-off for these calls is given here.

As to `C[C@H]1Oc2c(-c3cccs3)c(Cl)[nH]c(=O)c2[C@H]2c3ccccc3OC[C@H]21`, the inhibition at 25 µg/mL with Candida albicans [1] came out at 30%.

Regarding `CC(C)=CCC1(C)C=Cc2c(c(-c3ccc(C)cc3)c(Cl)[nH]c2=O)O1` (stereo not drawn), the inhibition at 25 µg/mL with Candida albicans [1] was found to be 30%.

`Cc1ccc(-c2c(Cl)[nH]c(=O)c3c2O[C@H](C)[C@@H]2COc4ccccc4[C@H]32)cc1`: the inhibition entry in the test with Candida albicans [2] was “inactive”. Further, in the test with Candida albicans [1], the inhibition at 25 µg/mL was above 50%. Further, the inhibition result in the test with Candida albicans [3] is “Dose-dependent effect”.

As to `CC1(C)C=Cc2c(c(-c3ccccc3)c[nH]c2=O)O1`, the values for the inhibition at 25 µg/mL in the test on Candida albicans [1] and with Candida albicans [4] were above 50% and 18.7%, respectively. Further, the inhibition result in the test on Candida albicans [3] is “Dose-dependent effect”.

Turning to `Cc1ccc(-c2c(Cl)[nH]c(=O)c3c2OC(C)(C)C=C3)cc1`, in the test on Candida albicans [1], the inhibition at 25 µg/mL is 30%.

In the case of `CC1(C)C=Cc2c(c(-c3ccccc3)c(Cl)[nH]c2=O)O1`, the inhibition at 25 µg/mL in the test on Candida albicans [1] came to 30%.

As for `C[C@H]1CC[C@H]2[C@H](C1)c1c(c(-c3cccs3)c(Cl)[nH]c1=O)OC2(C)C`, in the test with Candida albicans [1], the inhibition at 25 µg/mL is 30%.

As for `CC1(C)C=Cc2c(c(-c3cccs3)c(Cl)[nH]c2=O)O1`, the inhibition at 25 µg/mL with Candida albicans [1] is above 50%. Moreover, the inhibition entry in the test on Candida albicans [3] is “Dose-dependent effect”. Besides, the inhibition result in the test with Candida albicans [5] is “Active”.

On to `Cc1ccc(-c2c[nH]c(=O)c3c2OC(C)(C)C=C3)cc1`, for which the inhibition at 25 µg/mL in the test on Candida albicans [1] is above 50%; with Candida albicans [4], 17.9%. Also, the inhibition result in the test with Candida albicans [3] is “Dose-dependent effect”.

On to `CC(C)=CC[C@]1(C)Oc2c(-c3ccc(C)cc3)c(Cl)[nH]c(=O)c2[C@H]2c3ccccc3OC[C@H]21`, for which the inhibition at 25 µg/mL in the test with Candida albicans [1] was 30%.

One may read the inhibition as how much of the control response was suppressed.
